Measurements reported in patent US12371454B2, “Cyclic peptide compound having Kras inhibitory action” (priority 2019, dated 2025).
Starred links: 1 amine or outer side, 2 acyl side, 3 side chain; linkers in the order of their positions; H or OH if unused. Positions of bridges follow the written chain, without caps; N, C: chain ends. Non-standard residues stand in square brackets, D forms with d. Residues, ends and D or L forms follow the SMILES beside them. *: point of attachment. hPhe(3-Cl-4-CF3) = N[C@@H](CCc1ccc(C(F)(F)F)c(Cl)c1)C(=O)O; hPhe(3-F,4-CF3) = N[C@@H](CCc1ccc(C(F)(F)F)c(F)c1)C(=O)O; NPrAsp = CCCN([C@@H](CC(=O)[*:3])C(=O)[*:2])[*:1]; NMeMet(O2) = CN[C@@H](CCS(C)(=O)=O)C(=O)O; NMeAla(cPent) = CN[C@@H](CC1CCCC1)C(=O)O; NMeGly(cPent) = CN[C@H](C(=O)O)C1CCCC1; Pro(4,4-F2) = O=C(O)[C@@H]1CC(F)(F)CN1; mXylylene = c1cc(C[*:1])cc(C[*:2])c1; oXylylene = c1ccc(C[*:2])c(C[*:1])c1; NMeCha = CN[C@@H](CC1CCCCC1)C(=O)O; cisHyp = O=C(O)[C@@H]1C[C@H](O)CN1; Hyp = O=C(O)[C@@H]1C[C@@H](O)CN1; NMeAhp(2) = CCCCC[C@H](NC)C(=O)O; NMeChg = CN[C@H](C(=O)O)C1CCCCC1; NMeD = CN[C@@H](CC(=O)O)C(=O)O; NMeL = CN[C@@H](CC(C)C)C(=O)O; NMehSer = CN[C@@H](CCO)C(=O)O; NMeV = CN[C@H](C(=O)O)C(C)C; Morpholide = C1CN(*)CCO1; NMeA = CN[C@@H](C)C(=O)O; Piperidide = C1CCN(*)CC1; X45 = FC(F)Oc1ccc(C*)cc1; Ac5c = NC1(C(=O)O)CCCC1; Aze = O=C(O)[C@@H]1CCN1; X30 = COc1cccc(C*)c1; Meb = Cc1ccc(C*)cc1; X27 = Clc1ccccc1C*; Sar = CNCC(=O)O

Columns and labels:
[1] = tested on: Human pancreatic cancer cell line AsPC-1; assay: Measurement of AsPC-1 cell growth inhibition (AsPC-1 CGI); type: cell-based; details: 96 h
Procedure, shortened: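 AsPC-1 cells in 15% FBS RPMI-1640 were exposed to test compound for 96 hours at 37° C, with CellTiter-Glo as endpoint.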

[2] = molecular target: T1, Kras and SOS1 (biotin-tagged human Kras loaded with GDP, His-tagged human SOS1) (Homo sapiens, UniProt P01116, G12D); assay: Protein-protein interaction inhibition between Kras and SOS1 (KrasGl2D-SOS PPI) using AlphaScreen; type: binding; details: AlphaScreen; biotin-tagged human Kras loaded with GDP, His-tagged human SOS1; read-out: KRAS G12D-SOS PPI IC50
T1 construct: made in house; host or cells: E. coli (stated for Kras only)
Procedure, shortened: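 Read-out is acceptor-bead light at 520-620 nm, arising when 680 nm-irradiated nickel donor beads pass singlet oxygen to streptavidin acceptors. The bead pair links His-tagged SOS1 with biotin-tagged, GDP-bound Kras from E. coli.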

T1 sequence (P01116 1-188 isoform P01116-2 G12D): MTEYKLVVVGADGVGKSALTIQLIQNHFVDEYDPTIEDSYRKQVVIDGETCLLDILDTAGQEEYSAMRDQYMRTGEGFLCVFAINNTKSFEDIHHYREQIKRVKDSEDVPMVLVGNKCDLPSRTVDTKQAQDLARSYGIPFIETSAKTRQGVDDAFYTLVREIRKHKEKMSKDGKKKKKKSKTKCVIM

| Compound | IC50 [1] [nM] | IC50 [2] [nM] |
| --- | --- | --- |
| CCCCC[C@H]1C(=O)N[C@@H]([C@@H](C)CC)C(=O)N[C@@H](C)C(=O)N2CC[C@H]2C(=O)N(C)[C@@H](C2CCCC2)C(=O)N(C)CC(=O)N[C@@H](CCc2ccc(C(F)(F)F)c(Cl)c2)C(=O)N2CCC[C@H]2C(=O)NC2(CCCC2)C(=O)N(C)[C@@H](C2CCCC2)C(=O)N(C)[C@H](C(=O)N2CCOCC2)CC(=O)N1C [Compound 11] ([NMeAhp(2)]IA[Aze][NMeGly(cPent)][Sar][hPhe(3-Cl-4-CF3)]P[Ac5c][NMeGly(cPent)][NMeD]-Morpholide; lactam N-11) | 50 to 100 | 1.5 |
| CC[C@H](C)[C@@H]1NC(=O)[C@H](CC(C)C)N(C)C(=O)C[C@@H](C(=O)N2CCCCC2)N(C)C(=O)[C@H](CC2CCCC2)N(C)C(=O)C2(CCCC2)NC(=O)[C@@H]2CCCN2C(=O)[C@H](CCc2ccc(C(F)(F)F)c(Cl)c2)NC(=O)CN(C)C(=O)[C@H](CC2CCCCC2)N(C)C(=O)CN(C)C(=O)CN(C)C1=O [Compound 30] ([NMeL]I[Sar][Sar][NMeCha][Sar][hPhe(3-Cl-4-CF3)]P[Ac5c][NMeAla(cPent)][NMeD]-Piperidide; lactam N-11) | 100 to 500 | 4.6 |
| CC[C@H](C)[C@@H]1NC(=O)[C@H](CC(C)C)N(C)C(=O)C[C@@H](C(=O)N2CCCCC2)N(C)C(=O)[C@H](C2CCCCC2)N(C)C(=O)C2(CCCC2)NC(=O)[C@@H]2CC(F)(F)CN2C(=O)[C@H](CCc2ccc(C(F)(F)F)c(Cl)c2)NC(=O)CN(C)C(=O)[C@H](CC2CCCCC2)N(C)C(=O)CN(C)C(=O)CN(C)C1=O [Compound 48] ([NMeL]I[Sar][Sar][NMeCha][Sar][hPhe(3-Cl-4-CF3)][Pro(4,4-F2)][Ac5c][NMeChg][NMeD]-Piperidide; lactam N-11) | 20 to 50 | 0.97 |
| CC[C@H](C)[C@@H]1NC(=O)[C@H](CCS(C)(=O)=O)N(C)C(=O)C[C@@H](C(=O)N2CCCCC2)N(C)C(=O)[C@H](C2CCCCC2)N(C)C(=O)C2(CCCC2)NC(=O)[C@@H]2CCCN2C(=O)[C@H](CCc2ccc(C(F)(F)F)c(Cl)c2)NC(=O)CN(C)C(=O)[C@H](CC2CCCCC2)N(C)C(=O)CN(C)C(=O)CN(C)C1=O [Compound 52] ([NMeMet(O2)]I[Sar][Sar][NMeCha][Sar][hPhe(3-Cl-4-CF3)]P[Ac5c][NMeChg][NMeD]-Piperidide; lactam N-11) | 100 to 500 | 0.66 |
| CCCN1C(=O)[C@H](C2CCCC2)N(C)C(=O)C2(CCCC2)NC(=O)[C@@H]2CCCN2C(=O)[C@H](CCc2ccc(C(F)(F)F)c(Cl)c2)NC(=O)CN(C)C(=O)[C@H](CC2CCCCC2)N(C)C(=O)CN(C)C(=O)CN(C)C(=O)[C@H]([C@@H](C)CC)NC(=O)[C@H](C)N(C)C(=O)C[C@H]1C(=O)N1CCCCC1 [Compound 56] ([NMeA]I[Sar][Sar][NMeCha][Sar][hPhe(3-Cl-4-CF3)]P[Ac5c][NMeGly(cPent)][NPrAsp]-Piperidide; lactam N-11) | 20 to 50 | 2.3 |
| CC[C@H](C)[C@@H]1NC(=O)[C@H](CC2CCCC2)N(C)C(=O)C[C@@H](C(=O)N2CCCCC2)N(C)C(=O)[C@H](C(C)C)N(C)C(=O)C2(CCCC2)NC(=O)[C@@H]2CCCN2C(=O)[C@H](CCc2ccc(C(F)(F)F)c(Cl)c2)NC(=O)CN(C)C(=O)[C@H](CC2CCCCC2)N(C)C(=O)CN(C)C(=O)CN(C)C1=O [Compound 60] ([NMeAla(cPent)]I[Sar][Sar][NMeCha][Sar][hPhe(3-Cl-4-CF3)]P[Ac5c][NMeV][NMeD]-Piperidide; lactam N-11) | 100 to 500 | 7.9 |
| CC[C@H](C)[C@@H]1NC(=O)[C@H](CC(C)C)N(C)C(=O)C[C@@H](C(=O)N2CCCCC2)N(C)C(=O)[C@H](CC(C)C)N(C)C(=O)C2(CCCC2)NC(=O)[C@@H]2C[C@@H](OCc3ccc(C)cc3)CN2C(=O)[C@H](CCc2ccc(C(F)(F)F)c(F)c2)NC(=O)CN(C)C(=O)[C@H](CC2CCCCC2)N(C)C(=O)CN(C)C(=O)CN(C)C1=O [Compound 2130] ([NMeL]I[Sar][Sar][NMeCha][Sar][hPhe(3-F,4-CF3)][Hyp](Meb)[Ac5c][NMeL][NMeD]-Piperidide; lactam N-11) | > 500 | – |
| CC[C@H](C)[C@@H]1NC(=O)[C@H](CC(C)C)N(C)C(=O)C[C@@H](C(=O)N2CCCCC2)N(C)C(=O)[C@H](CC(C)C)N(C)C(=O)C2(CCCC2)NC(=O)[C@@H]2C[C@@H](OCc3cccc(OC)c3)CN2C(=O)[C@H](CCc2ccc(C(F)(F)F)c(F)c2)NC(=O)CN(C)C(=O)[C@H](CC2CCCCC2)N(C)C(=O)CN(C)C(=O)CN(C)C1=O [Compound 2131] ([NMeL]I[Sar][Sar][NMeCha][Sar][hPhe(3-F,4-CF3)][Hyp](X30)[Ac5c][NMeL][NMeD]-Piperidide; lactam N-11) | 100 to 500 | – |
| CC[C@H](C)[C@@H]1NC(=O)[C@H](CC(C)C)N(C)C(=O)C[C@@H](C(=O)N2CCCCC2)N(C)C(=O)[C@H](CC(C)C)N(C)C(=O)C2(CCCC2)NC(=O)[C@@H]2C[C@H](OCc3ccccc3Cl)CN2C(=O)[C@H](CCc2ccc(C(F)(F)F)c(F)c2)NC(=O)CN(C)C(=O)[C@H](CC2CCCCC2)N(C)C(=O)CN(C)C(=O)CN(C)C1=O [Compound 2132] ([NMeL]I[Sar][Sar][NMeCha][Sar][hPhe(3-F,4-CF3)][cisHyp](X27)[Ac5c][NMeL][NMeD]-Piperidide; lactam N-11) | > 500 | – |
| CC[C@H](C)[C@@H]1NC(=O)[C@H](CC(C)C)N(C)C(=O)C[C@@H](C(=O)N2CCCCC2)N(C)C(=O)[C@H](CC(C)C)N(C)C(=O)C2(CCCC2)NC(=O)[C@@H]2C[C@H](OCc3ccc(OC(F)F)cc3)CN2C(=O)[C@H](CCc2ccc(C(F)(F)F)c(F)c2)NC(=O)CN(C)C(=O)[C@H](CC2CCCCC2)N(C)C(=O)CN(C)C(=O)CN(C)C1=O [Compound 2135] ([NMeL]I[Sar][Sar][NMeCha][Sar][hPhe(3-F,4-CF3)][cisHyp](X45)[Ac5c][NMeL][NMeD]-Piperidide; lactam N-11) | > 500 | – |
| CC[C@H](C)[C@@H]1NC(=O)[C@H](CC(C)C)N(C)C(=O)C[C@@H](C(=O)N2CCCCC2)N(C)C(=O)[C@H](CC(C)C)N(C)C(=O)C2(CCCC2)NC(=O)[C@@H]2C[C@H](OCc3cccc(OC)c3)CN2C(=O)[C@H](CCc2ccc(C(F)(F)F)c(F)c2)NC(=O)CN(C)C(=O)[C@H](CC2CCCCC2)N(C)C(=O)CN(C)C(=O)CN(C)C1=O [Compound 2136] ([NMeL]I[Sar][Sar][NMeCha][Sar][hPhe(3-F,4-CF3)][cisHyp](X30)[Ac5c][NMeL][NMeD]-Piperidide; lactam N-11) | > 500 | – |
| CC[C@H](C)[C@@H]1NC(=O)[C@H](CC(C)C)N(C)C(=O)C[C@@H](C(=O)N2CCCCC2)N(C)C(=O)[C@H](CC(C)C)N(C)C(=O)C2(CCCC2)NC(=O)[C@@H]2C[C@H](OCc3ccccc3C)CN2C(=O)[C@H](CCc2ccc(C(F)(F)F)c(F)c2)NC(=O)CN(C)C(=O)[C@H](CC2CCCCC2)N(C)C(=O)CN(C)C(=O)CN(C)C1=O [Compound 2137] ([NMeL]I[Sar][Sar][NMeCha][Sar][hPhe(3-F,4-CF3)][cisHyp](oXylylene)[Ac5c][NMeL][NMeD]-Piperidide; lactam N-11) | > 500 | – |
| CC[C@H](C)[C@@H]1NC(=O)[C@H](CC(C)C)N(C)C(=O)C[C@@H](C(=O)N2CCCCC2)N(C)C(=O)[C@H](CC(C)C)N(C)C(=O)C2(CCCC2)NC(=O)[C@@H]2C[C@@H](OCc3ccccc3Cl)CN2C(=O)[C@H](CCc2ccc(C(F)(F)F)c(F)c2)NC(=O)CN(C)C(=O)[C@H](CC2CCCCC2)N(C)C(=O)CN(C)C(=O)CN(C)C1=O [Compound 2138] ([NMeL]I[Sar][Sar][NMeCha][Sar][hPhe(3-F,4-CF3)][Hyp](X27)[Ac5c][NMeL][NMeD]-Piperidide; lactam N-11) | 100 to 500 | – |
| CC[C@H](C)[C@@H]1NC(=O)[C@H](CC(C)C)N(C)C(=O)C[C@@H](C(=O)N2CCCCC2)N(C)C(=O)[C@H](CC(C)C)N(C)C(=O)C2(CCCC2)NC(=O)[C@@H]2C[C@@H](OCc3ccccc3C)CN2C(=O)[C@H](CCc2ccc(C(F)(F)F)c(F)c2)NC(=O)CN(C)C(=O)[C@H](CC2CCCCC2)N(C)C(=O)CN(C)C(=O)CN(C)C1=O [Compound 2139] ([NMeL]I[Sar][Sar][NMeCha][Sar][hPhe(3-F,4-CF3)][Hyp](oXylylene)[Ac5c][NMeL][NMeD]-Piperidide; lactam N-11) | 100 to 500 | – |
| CC[C@H](C)[C@@H]1NC(=O)[C@H](CC(C)C)N(C)C(=O)C[C@@H](C(=O)N2CCCCC2)N(C)C(=O)[C@H](CC(C)C)N(C)C(=O)C2(CCCC2)NC(=O)[C@@H]2C[C@H](OCc3ccc(C)cc3)CN2C(=O)[C@H](CCc2ccc(C(F)(F)F)c(F)c2)NC(=O)CN(C)C(=O)[C@H](CC2CCCCC2)N(C)C(=O)CN(C)C(=O)CN(C)C1=O [Compound 2140] ([NMeL]I[Sar][Sar][NMeCha][Sar][hPhe(3-F,4-CF3)][cisHyp](Meb)[Ac5c][NMeL][NMeD]-Piperidide; lactam N-11) | > 500 | – |
| CC[C@H](C)[C@@H]1NC(=O)[C@H](CC(C)C)N(C)C(=O)C[C@@H](C(=O)N2CCCCC2)N(C)C(=O)[C@H](CC(C)C)N(C)C(=O)C2(CCCC2)NC(=O)[C@@H]2C[C@H](OCc3cccc(C)c3)CN2C(=O)[C@H](CCc2ccc(C(F)(F)F)c(F)c2)NC(=O)CN(C)C(=O)[C@H](CC2CCCCC2)N(C)C(=O)CN(C)C(=O)CN(C)C1=O [Compound 2141] ([NMeL]I[Sar][Sar][NMeCha][Sar][hPhe(3-F,4-CF3)][cisHyp](mXylylene)[Ac5c][NMeL][NMeD]-Piperidide; lactam N-11) | > 500 | – |
| CC[C@H](C)[C@@H]1NC(=O)[C@H](CC(C)C)N(C)C(=O)C[C@@H](C(=O)N2CCCCC2)N(C)C(=O)[C@H](C2CCCCC2)N(C)C(=O)C2(CCCC2)NC(=O)[C@H](CCOC)N(C)C(=O)[C@H](CCc2ccc(C(F)(F)F)c(Cl)c2)NC(=O)CN(C)C(=O)[C@H](CC2CCCCC2)N(C)C(=O)CN(C)C(=O)CN(C)C1=O [Compound 2168] ([NMeL]I[Sar][Sar][NMeCha][Sar][hPhe(3-Cl-4-CF3)][NMehSer](Me)[Ac5c][NMeChg][NMeD]-Piperidide; lactam N-11) | 100 to 500 | – |
